# Assay results reported in patent US9012481B2, “Benzoarylureido compounds, and composition for prevention or treatment of neurodegenerative brain disease containing the same” (Korea Institute of Science and Technology, priority 2009, dated 2015).
# How the values were obtained:
# phospho-ERK1 = assay: Immunoblotting of phospho-ERK1 in beta-amyloid stimulated BV-2 cell culture; format: cell-based
# Experimental: (§1) The beta-amyloid treated cells (6-well of 5×10^5 cells/3 Ml, allotted from Pharmacology Division of Ajou University) were collected, and washed with phosphate-buffered saline (PBS). After centrifugation, the cells were dissolved in 0.1 ml of RIPA buffer (containing 150 mM NaCl, 1% NP-40, 0.5% sodium deoxycholate, 0.1% SDS, 50 mM Tris-HCl, pH 7.4, 50 mM glyycerophosphate, 20 mM NaF, 20 mM EGTA, 1 mM DTT, 1 mM Na3VO4, and protease inhibitor) at 4° C. for 15 minutes by strong shaking. The cells were cultivated in ice for 10 minutes, the lysate was centrifuged at 14,000 rpm for 5 minutes. 20 μg of a protein obtained from the cell lysate was heated, and then, electrophoresed on 12% polyacrylamide gel under reduction condition. The cells were incubated in blocking buffer (20 mM Tris, pH 7.4-buffer saline containing 0.1% tween 20 containing 5% lipid-free dried milk) for 1 hour, to suppress non-specific binding. […]
# (§2) To examine the effect of compound KHG25967 on phosphorylation of ERK (extracellular signal-regulated kinase) and expression of caspase 3 by beta-amyloid, a possible protein expression of ERK1/2 (extracellular signal-regulated kinase 1 & 2) and caspase 3 in BV-2cell culture stimulated with beta-amyloid were measured. […]
# interleukin-1beta = assay: ELISA of interleukin-1beta in LPS-treated BV-2 cells; format: cell-based; conditions: LPS 1 μg/ml for 2 hours, then 50 nM KHG25967 for 6 hours; compared to LPS only as 100%
# Experimental: Lipopolysaccharide (LPS)-treated cells (6-well of 5×10^5 cells/3 Ml, Fluka, Sigma-Aldrich, St. Louis, Mo., USA) were collected, and washed with phosphate-buffered saline (PBS). The cells were centrifuged, and then dissolved in pro-prep lysis buffer at 4° C. Interleukin-1 beta and tumor necrosis factor-alpha in the cell lysis solution wherein the cells were dissolved were measured by enzyme-linked immunosorbent analysis plate (R&D systems inc, Minneapolis, Minn., USA). The absorbance at 450 nm was measured using microplate reader. In addition, cytokine was measured using a cytokine measuring system (R&D systems inc, Minneapolis, Minn., USA).
# BV-2 cells were pre-treated with 1 μg/ml of LPS (Fluka, Sigma-Aldrich, St. Louis, Mo., USA) for 2 hours, and then, further treated with 50 nM KHG25967 for 6 hours. The changed amounts of cytokines of tumor necrosis factor-alpha and interleukin-1beta were measured from lysate solution where the cells were dissolved in cell lysate solution (Intron Biotechnology, Seoul, Korea).
# phospho-ERK2 = assay: Immunoblotting of phospho-ERK2 in beta-amyloid stimulated BV-2 cell culture; format: cell-based; conditions: beta-amyloid together with KHG25967 (50 nM) compared to beta-amyloid only
# Experimental: as §1, §2
# caspase 3 = assay: Immunoblotting of cleaved caspase 3 in beta-amyloid stimulated BV-2 cell culture; format: cell-based; conditions: beta-amyloid together with KHG25967 (50 nM) compared to beta-amyloid only
# Experimental: as §1, with “condition.” for “condition. The cells were incubated in blocking buffer (20 mM Tris, pH 7.4-buffer saline containing 0.1% tween 20 containing 5% lipid-free dried milk) for 1 hour, to suppress non-specific binding.”
# To examine the effect of compound KHG25967 on phosphorylation of ERK (extracellular signal-regulated kinase) and expression of caspase 3 by beta-amyloid, a possible protein expression of ERK1/2 (extracellular signal-regulated kinase 1 & 2) and caspase 3 in BV-2cell culture stimulated with beta-amyloid were measured.
# The activity of caspase 3 was measured as a cleavage at aspartic acid and serine by a stimulation, which is measured using anti-cleavage-caspase 3 antibody (Cell Signaling Technology Inc, Beverly, Mass., USA) through immunoblotting analysis. […]
# [1] = system: tumor necrosis factor-alpha; assay: LPS-induced tumor necrosis factor-alpha in brain and serum of C57BL/6 mice; format: in vivo; conditions: oral KHG25967 10 mg/kg or 20 mg/kg every day for 2 weeks, then LPS 10 mg/kg into brain, 6 hours
# Experimental: The animal experiment was performed using C57BL/6 mice ([…], 12-14 weeks old, Harlan Sprague Dawley inc, Indianapolis, Ind., USA) by stereotaxis. The intracerebroventricular (ICV) injection was according to the intracerebroventricular injection system described in Craft et al., 2004b. The mice were grown in an accommodation for SPF (specific pathogen free) under 12 hours light/12 hours dark repeat, and supplied with water and feed as recommended by the accommodation for SPF. The study was reviewed and approved by the Institutional Animal Care and Use Committee (IACUC) of Asan Institute for Life Sciences, Asan Medical Center, which abides by the Institute of Laboratory Animal Resources (ILAR) guide.
# The effect of KHG25967 on the change of pro-inflammatory cytokines was examined in vivo using 12-14 week old C57BL/6 mice. The control group was administered with PBS only for 2 weeks and then, further treated with PBS for 6 hours. The LPS group was administered with PBS only for 2 weeks and then, 10 mg/kg of LPS was administered into brain using streotaxis. The KHG25967 treated group was administered with 10 mg/kg or 20 mg/kg of KHG25967 every day for 2 weeks, and then, 10 mg/kg of LPS was administered into brain using streotaxis. […] The changes in the level of pro-inflammatory cytokines (interleukin-1beta and tumor necrosis factor-alpha) in the separated blood and brain were measured.
smiles,measurement,setting,value
"O=C(O)CNC(=O)Nc1nc2ccccc2s1 [KHG25967, 2-(3-benzo[d]thiazole-2-ylureido)acetic acid]",reduction of expression level of phospho-ERK1 (FIG. 2B),phospho-ERK1; beta-amyloid together with KHG25967 (50 nM) compared to beta-amyloid only,90%
same,"increase of phospho-ERK1/2 (Western blot, FIG. 2A)",phospho-ERK1; culture treated with beta-amyloid in the presence of 50 nM KHG25967,considerably weakened
same,suppression of interleukin-1beta level (FIG. 3A),interleukin-1beta,70%
same,reduction of expression level of phospho-ERK2 (FIG. 2B),phospho-ERK2,70%
same,reduction of expression level of cleavage-caspase 3 (FIG. 2C),caspase 3,93%
same,"level of tumor necrosis factor-alpha in blood (serum, FIG. 4D)",[1],no specific difference
same,decrease of tumor necrosis factor-alpha level in brain (FIG. 4B),[1]; compared with LPS only as 100%,42%
